Measured values reported in patent publication US12421235B2, “Bridged tricyclic carbamoylpyridone compounds and uses thereof” (Gilead Sciences, Inc., priority 2020, dated 2025).

Tests used:
[1] = system: pLai RLuc reporter virus in MT-4 cells; assay: HIV MT-4 serum shift antiviral reporter assay; assay type: cell-based; conditions: Human immunodeficiency virus 1, MT4, 72 h, read-out: RLUC CCM
Protocol: Example 48: HIV MT-4 Serum Shift Antiviral Reporter Assay
To quantify the amount of protein binding to human serum, compounds were serially diluted (1:3) in DMSO and acoustically transferred onto 384-well assay plates via a Labcyte ECHO robot. Each plate contained up to 8 test compounds, including negative and positive controls, (DMSO, 5 μM AZT respectively). Assay plates were prepared in duplicate, and tested in either CCM (cell culture media) or HS/CCM (human serum/cell culture media). MT-4 cells were first pre-infected with pLai RLuc reporter virus for 2 h at 37° C., then further diluted in either CCM (RPMI media, 10% FBS, 1% P/S) or HS/CCM (RPMI media, 10% FBS, 50% HS, 1% P/S), and subsequently added to each plate using a Biotek Micro Flow dispenser. After a 72-h incubation in a humidified and temperature controlled incubator (37° C.), Renilla Glo (Promega) was added to all assay plates and chemiluminescence read using an Envision plate-reader. EC50 values were defined as the compound concentration that causes a 50% decrease in luminescence signal, and were calculated using a sigmoidal dose-response model to generate curve fits. To determine the amount of protein binding, EC50 fold shifts (or EC50 shifts) were calculated by dividing EC50 (HS/CCM)/EC50 (CCM). […]

[2] = system: HIV-1 (IIIB) in MT-4 cells; assay: HIV MT-4 antiviral assay; assay type: cell-based; conditions: Human immunodeficiency virus 1, MT4, 120 h, 5 days, Cell Titer Glo
Protocol: Example 47: HIV MT-4 Antiviral and Cytotoxicity Assay
Antiviral Assay in MT-4 Cells
(§1) Compounds were tested in a high-throughput 384-well assay format for their ability to inhibit the replication of HIV-1 (IIIB) in MT-4 cells. Compounds were serially diluted (1:3) in DMSO on 384-well polypropylene plates and further diluted 200-fold into complete RPMI media (10% FBS, 1% P/S) using the Biotek Micro Flow and Labcyte ECHO acoustic dispenser. Each plate contained up to 8 test compounds, with negative (No Drug Control) and 5 μM AZT positive controls. MT-4 cells were pre-infected with 10 μL of either RPMI (mock-infected) or a fresh 1:250 dilution of HIV-1 IIIB concentrated virus stock. Infected and uninfected MT-4 cells were further diluted in complete RPMI media and added to each plate using a Micro Flow dispenser. After 5 days incubation in a humidified and temperature controlled incubator (37° C.), Cell Titer Glo (Promega) was added to the assay plates and chemiluminescence read using an Envision plate-reader. EC50 values were defined as the compound concentration that causes a 50% decrease in luminescence signal, and were calculated using a sigmoidal dose-response model to generate curve fits.

[3] = Cytotoxicity assay in MT-4 cells; assay type: cell-based; conditions: human, uninfected MT-4 cells, Cell Titer Glo
Protocol: as §1, with “fits. Cytotoxicity Assay in MT-4 Cells Assays were performed as above except uninfected MT-4 cells were added to each well containing test compound. In addition, 10 μM puromycin was added to the last column of each assay plate to assess a base level of cytotoxicity.” for “fits.”

[4] = High throughput microsomal stability assay (human liver microsomes); assay type: in vitro ADME; conditions: for HLM stability: human liver microsomes, 1 uM compound, NADPH + UDPGA cofactors, 37 C
Protocol: Example 49: High Throughput Microsomal Stability Assay
Metabolic stability of compounds was assessed using Human, or Rat Liver Microsomal assays (Corning). In this assay, 10 nL compounds at concentration of 1 mM in 100% DMSO were dispensed into 384-well polypropylene plates using the Echo 550 acoustic liquid dispenser (Labcyte®). Each plate contained 384 wells with a single test compound in each well.
A solution of human (Corning® Gentest™ Human Mixed Pooled Microsomes), or rat (Corning® Gentest™ Rat [Sprague-Dawley] Pooled Liver Microsomes) liver microsomes at 2 mg/ml in 100 mM K2HPO4/KH2PO4 pH 7.4 with Alamethicin from Trichoderma viride (Sigma-Aldrich) 0.0225 mg/ml were incubated on ice for 15 minutes. 5 uL of this solution was added to individual wells following 15 minute incubation at room temperature; and supplemented with 5 uL NADPH Regenerating Solution of cofactors (Corning® Gentest™ UGT Reaction Mix) containing 100 mM K2HPO4/KH2PO4 pH 7.4, 2.6 mM NADP+, 6.6 mM glucose-6-phosphate, 6.6 mM MgCl2, 0.8 U/mL glucose-6-phosphate dehydrogenase, 0.1 mM Sodium Citrate, 6.8 mM uridine diphosphate-glucuronic acid. Final concentration of analyte compounds at the beginning of the reaction was 1 uM. The reactions were incubated at 37° C. and time points of 0, 5, 15, 30, 40, 50, 60, and 70 minutes were collected for further analysis. Background data were collected using reactions without analyte compounds.
Upon collection of the reaction time points, samples were quenched with 30 uL of a solution of 72% acetonitrile, 8% methanol, 0.1% formic acid, 19.9% water, and internal standard (IS). Reaction plates were span in a centrifuge at speed of 4,000 rcf for 30 minutes and 4° C., following a dilution of the 10 uL quenched reaction into 40 uL de-ionized water, yielding assay plates.
Assay plates were analyzed using solid-state extraction coupled with quadrupole time-of-flight mass spectrometer, using Agilent QToF 6530 RapidFire 360 system, with C4 type A solid state cartridges. Analysis was performed in either positive or negative ionization modes. Mobile phases contained 0.1% formic acid in water for loading analytes onto solid state extraction cartridges, and 0.1% formic acid in acetonitrile for elution into mass spectrometer in positive ionization mode, or 0.1% acetic acid in water for loading and 0.1% acetic acid in acetonitrile for extraction in negative ionization mode. Peak-area ratios of integrated counts for individual compounds to IS were plotted as semi-logarithmic chart of log vs time. Initial, linear portion of decay was fitted to a linear regression equation to derive half time of a compound decay.
Pharmacological parameters for an analyte compound metabolism were calculated using the following equations: […]
Where. Calculation of In Vitro Intrinsic Clearance
Concentration refers to the protein concentration (mg/mL) in the reaction.
Calculation of In Vivo Intrinsic Clearance
This scales the in vitro intrinsic clearance up to the value that would be predicted for the entire mass of liver tissue (but with no restriction by blood flow). The value depends upon the size of the liver (species-dependent) and the yield of microsomal protein as appropriate (assumed to be species-independent).
Calculation of Predicted Clearance
Hepatic clearance will depend upon the inter-relationship of intrinsic clearance and hepatic blood flow and can be predicted from in vitro data using a variety of approaches.
Calculation of Hepatic Extraction
This is simply the predicted clearance expressed as a proportion of hepatic blood flow. E=CL/QH*100%
Intrinsic clearance of the instant compounds, as well as for reference compounds A-F, were calculated following the procedure above.

Compound	EC50 [1] [nM]	EC50 [2] [nM]	CC50 at 5 days [3] [nM]	HLM stability [4] [mL/min/kg]	MS Cl improvement ([4]; relative to compound F)	MS Cl improvement ([4]; relative to compound A)
C[C@H]1CC[C@](C)(O)[C@H]2CN1C(=O)c1c(O)c(=O)c(C(=O)NCc3ccc(F)cc3F)cn12 (single isomer, unassigned) [Example 12]	0.61	1.4	41300	2.5	3.3 times relative to compound F	–
CO[C@@]1(C)C=C[C@H](C)N2C[C@H]1n1cc(C(=O)NCc3c(F)cc(F)cc3F)c(=O)c(O)c1C2=O (single isomer, unassigned) [Example 24]	–	2.2	11100	11.5	–	–
C[C@H]1CC[C@@](C)(O)[C@H]2CN1C(=O)c1c(O)c(=O)c(C(=O)NCc3c(F)cc(F)cc3F)cn12 (single isomer, unassigned) [Example 32]	0.43	1.9	34600	9	–	–
C[C@@H]1CC[C@](C)(O)[C@H]2CN1C(=O)c1c(O)c(=O)c(C(=O)NCc3ccc(F)cc3F)cn12 (single isomer, unassigned) [Example 35]	1.45	3.2	11700	10.3	–	–
CO[C@@H]1CC(F)(F)[C@H](C)N2C[C@H]1n1cc(C(=O)NCc3c(F)cc(F)cc3F)c(=O)c(O)c1C2=O (single isomer, unassigned) [Example 36]	0.33	2.6	27300	3.3	–	–
CO[C@@H]1C[C@@H](F)[C@H](C)N2C[C@H]1n1cc(C(=O)NCc3c(F)cc(F)cc3F)c(=O)c(O)c1C2=O (single isomer, unassigned) [Example 38]	0.34	1.8	25500	3.17	–	–
CO[C@H]1CC[C@H](C)N2C[C@H]1n1cc(C(=O)NCc3c(F)cc(F)cc3F)c(=O)c(O)c1C2=O [Example 1, (3S,6S,7R)-12-hydroxy-6-methoxy-3-methyl-1,11-dioxo-N-(2,4,6-trifluorobenzyl)-1,4,5,6,7,11-hexahydro-3H-2,7-methanopyrido[1,2-a][1,4]diazonine-10-carboxamide]	0.55	1.5	34800	3.5	–	3.2 times relative to compound A
C[C@H]1CC[C@H](O)[C@H]2CN1C(=O)c1c(O)c(=O)c(C(=O)NCc3c(F)cc(F)cc3F)cn12 [Example 2, (3S,6S,7R)-6,12-dihydroxy-3-methyl-1,11-dioxo-N-(2,4,6-trifluorobenzyl)-1,4,5,6,7,11-hexahydro-3H-2,7-methanopyrido[1,2-a][1,4]diazonine-10-carboxamide]	0.53	1.8	50000	2.5	–	–
C[C@H]1C=C[C@H](O)[C@H]2CN1C(=O)c1c(O)c(=O)c(C(=O)NCc3c(F)cc(F)cc3F)cn12 [Example 14, (3S,6S,7R)-6,12-dihydroxy-3-methyl-1,11-dioxo-N-(2,4,6-trifluorobenzyl)-1,6,7,11-tetrahydro-3H-2,7-methanopyrido[1,2-a][1,4]diazonine-10-carboxamide]	–	4.2	50000	2.67	–	–
C[C@H]1C=C[C@H](O)[C@H]2CN1C(=O)c1c(O)c(=O)c(C(=O)NCc3ccc(F)cc3F)cn12 [Example 20, (3S,6S,7R)—N-(2,4-difluorobenzyl)-6,12-dihydroxy-3-methyl-1,11-dioxo-1,6,7,11-tetrahydro-3H-2,7-methanopyrido[1,2-a][1,4]diazonine-10-carboxamide]	–	2.8	30000	1.83	–	–
C[C@H]1C=C[C@H](OC(F)F)[C@H]2CN1C(=O)c1c(O)c(=O)c(C(=O)NCc3c(F)cc(F)cc3F)cn12 [Example 22, (3S,6S,7R)-6-(difluoromethoxy)-12-hydroxy-3-methyl-1,11-dioxo-N-(2,4,6-trifluorobenzyl)-1,6,7,11-tetrahydro-3H-2,7-methanopyrido[1,2-a][1,4]diazonine-10-carboxamide]	–	1.7	8910	14	–	–
[2H]C([2H])([2H])[C@]1(O)C=C[C@H](C)N2C[C@H]1n1cc(C(=O)NCc3ccc(F)cc3F)c(=O)c(O)c1C2=O [Example 30, (1R,10S,13S)—N-[(2,4-difluorophenyl)methyl]-6,13-dihydroxy-10-methyl-5,8-dioxo-13-(trideuteriomethyl)-2,9-diazatricyclo[7.4.1.02,7]tetradeca-3,6,11-triene-4-carboxamide]	–	2.1	7480	1.83	–	–
